Measurements from paper PMC2878737 (Channels (Austin, Tex.), 2009).

Target: NaV1.2 (Rattus norvegicus, UniProt P04775)
Sequence (P04775 whole entry, looked up): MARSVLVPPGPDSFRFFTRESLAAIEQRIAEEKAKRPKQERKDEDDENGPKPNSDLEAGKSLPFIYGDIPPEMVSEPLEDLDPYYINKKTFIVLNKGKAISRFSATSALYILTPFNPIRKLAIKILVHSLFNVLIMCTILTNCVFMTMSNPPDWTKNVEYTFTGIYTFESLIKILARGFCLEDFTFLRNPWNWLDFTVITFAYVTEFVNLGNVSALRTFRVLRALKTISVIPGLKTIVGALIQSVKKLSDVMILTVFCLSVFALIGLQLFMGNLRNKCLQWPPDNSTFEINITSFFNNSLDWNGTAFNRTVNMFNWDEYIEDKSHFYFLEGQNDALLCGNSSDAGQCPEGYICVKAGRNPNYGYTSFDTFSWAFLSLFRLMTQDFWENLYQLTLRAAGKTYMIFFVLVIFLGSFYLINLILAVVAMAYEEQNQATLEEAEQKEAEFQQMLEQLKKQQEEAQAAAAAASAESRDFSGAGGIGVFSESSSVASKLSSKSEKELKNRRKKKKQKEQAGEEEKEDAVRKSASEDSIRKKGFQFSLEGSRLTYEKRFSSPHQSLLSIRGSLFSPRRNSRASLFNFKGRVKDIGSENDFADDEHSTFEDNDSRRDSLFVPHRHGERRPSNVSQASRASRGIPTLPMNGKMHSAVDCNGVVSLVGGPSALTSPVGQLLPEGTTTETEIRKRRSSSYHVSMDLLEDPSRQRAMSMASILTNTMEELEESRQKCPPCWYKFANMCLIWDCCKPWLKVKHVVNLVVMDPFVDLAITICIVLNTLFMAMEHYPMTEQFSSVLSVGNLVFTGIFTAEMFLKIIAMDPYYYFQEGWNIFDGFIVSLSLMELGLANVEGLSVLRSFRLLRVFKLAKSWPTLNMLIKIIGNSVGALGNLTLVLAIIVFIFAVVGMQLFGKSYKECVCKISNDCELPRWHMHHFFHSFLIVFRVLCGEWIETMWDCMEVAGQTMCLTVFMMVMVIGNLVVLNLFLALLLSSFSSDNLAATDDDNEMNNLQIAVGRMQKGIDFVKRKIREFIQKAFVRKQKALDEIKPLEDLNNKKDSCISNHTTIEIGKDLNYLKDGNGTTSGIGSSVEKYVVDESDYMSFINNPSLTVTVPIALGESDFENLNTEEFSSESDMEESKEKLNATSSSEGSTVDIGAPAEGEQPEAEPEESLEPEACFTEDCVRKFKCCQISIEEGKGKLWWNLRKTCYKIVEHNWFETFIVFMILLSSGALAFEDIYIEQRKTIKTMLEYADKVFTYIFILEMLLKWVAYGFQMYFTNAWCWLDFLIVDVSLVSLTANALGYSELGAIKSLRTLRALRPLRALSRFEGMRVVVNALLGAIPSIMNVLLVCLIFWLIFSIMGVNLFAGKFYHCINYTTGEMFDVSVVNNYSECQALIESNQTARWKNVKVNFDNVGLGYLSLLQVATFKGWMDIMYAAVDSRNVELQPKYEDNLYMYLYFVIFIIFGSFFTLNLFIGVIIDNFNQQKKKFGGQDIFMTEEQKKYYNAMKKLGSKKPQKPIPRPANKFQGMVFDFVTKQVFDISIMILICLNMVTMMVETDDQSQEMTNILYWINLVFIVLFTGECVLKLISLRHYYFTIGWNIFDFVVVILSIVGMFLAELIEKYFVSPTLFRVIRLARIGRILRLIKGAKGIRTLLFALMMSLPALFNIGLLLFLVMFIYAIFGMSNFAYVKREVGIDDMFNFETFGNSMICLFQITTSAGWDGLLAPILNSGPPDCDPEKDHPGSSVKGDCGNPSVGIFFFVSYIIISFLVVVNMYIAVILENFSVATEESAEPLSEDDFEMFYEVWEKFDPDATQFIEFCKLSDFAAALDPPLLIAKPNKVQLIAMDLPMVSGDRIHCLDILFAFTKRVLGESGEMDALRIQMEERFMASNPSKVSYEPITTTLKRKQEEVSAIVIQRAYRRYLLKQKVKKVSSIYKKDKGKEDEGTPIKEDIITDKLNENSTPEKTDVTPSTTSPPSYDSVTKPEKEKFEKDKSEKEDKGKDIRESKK

## NC1=N[C@H](O)[C@H]2[C@H]3O[C@]4(O)O[C@@H]([C@@H](O)[C@@]2(N1)[C@@H]4O)[C@]3(O)CO [TTX, Tetrodotoxin]
  block of residual INa persisting with KIIIA or KIIIA[K7A]: completely blocked
